# Laboratory results taken from US10669242B2 (priority 2016, dated 2020).
# Entries after “also recorded” stand apart in the source; their conditions may differ.
# How the values were obtained:
# [1] = test system: C. difficile toxin (TcdA and TcdB, ~1:1); assay: Murine C. difficile toxin model (intrarectal toxin); type: in vivo, C57BL/6 mice; details: for IL-1β (% Inhibition) / MPO (% Inhibition): murine C. difficile toxin model, PO, 50 mg/kg body weight
# C. difficile strain 630 = type: in vivo, Golden Syrian hamsters
# [2] = Plasma concentrations in the murine C. difficile toxin model (LC/MS); type: in vivo; details: mice, over four hours
# Protocol: We monitored the plasma concentrations of Example 6a following the IR, PO and IP administrations in the murine C. difficile toxin model (Example 63). Plasma concentrations of Example 6a were determined with the use of high pressure liquid chromatography (HPLC) and mass spectrometry (MS) following the administration of Example 6a. Plasma concentration curve of Example 6a was plotted over four hours (FIG. 5). […] It is noted that reduction of the IL-1β and MPO levels as well as improved colon histopathology correlates with the plasma concentrations of Example 6a.
# To determine plasma concentration of compounds, blood (˜200 μl) was drawn by retro-orbital bleed, and compound concentration was determined by liquid chromatography (LC)/mass spectrometry (MS)(AB Sciex API-3000 LC/MS/MS system).
# [3] = oral (PO), 50 mg/kg, intrarectal toxin 12.5 μg
# [4] = intraperitoneal (IP), 50 mg/kg, intrarectal toxin 12.5 μg
# [5] = intrarectal (IR) co-administration with toxin (12.5 μg), 25 mg/kg, ~12.5 mg/kg, 4 hours
structure (smiles),measurement,setting,value
"O=C(Nc1ccc(C(F)(F)F)cn1)c1ccc(CN2C(=O)c3ccc(Cl)cc3NC(=O)[C@H]2Cc2ccccn2)cc1Cl [Example 5ae, (R)-2-Chloro-4-((8-chloro-2,5-dioxo-3-(pyridin-2-ylmethyl)-2,3-dihydro-1H-benzo[e][1,4]diazepin-4(5H)-yl)methyl)-N-(5-(trifluoromethyl)pyridin-2-yl)benzamide]",IL-1β (% Inhibition),[1],81%
same,MPO (% Inhibition),[1],79%
same,IL-1β in colon tissue,[1]; [3],reduced the levels of IL-1β
same,MPO in colon tissue,[1]; [3],reduced
same,toxin effect on colon length,[1]; [3],reduced the C. difficile toxin-mediated effects on colon length
same,survival until Day 10,C. difficile strain 630; Example 5ae 50 mg/kg PO twice per day for 7 days,70%
same,median survival time / protection from mortality,"C. difficile strain 630; PO twice per day, Example 5ae 50 mg/kg 7 days, vancomycin 5 mg/kg 5 days",significantly improved the median survival time
"COc1ccc(NC(=O)c2ccc(CN3C(=O)c4ccc(Cl)cc4NC(=O)[C@H]3Cc3ccccn3)cc2F)nc1 [Example 6a, (R)-4-((8-Chloro-2,5-dioxo-3-(pyridin-2-ylmethyl)-2,3-dihydro-1H-benzo[e][1,4]diazepin-4(5H)-yl)methyl)-2-fluoro-N-(5-methoxypyridin-2-yl)benzamide]",IL-1β in colon tissue,[1]; [4],decreased the C. difficile toxin-induced IL-1β; also recorded: reduced the concentrations of IL-1β
same,MPO in colon tissue,[1]; [4],decreased; also recorded: reduced
same,toxin effect on colon length,[1]; [4],reduced the C. difficile toxin-mediated effects on colon length; also recorded: effective in reducing the C. difficile toxin effects on colon length
same,toxin effect on colon length,[1]; [5],reduced the C. difficile toxin-mediated effects on colon length
same,toxin-induced IL-1β in colon tissue,[1]; [5],decreased the C. difficile toxin-induced IL-1β
same,toxin-induced MPO in colon tissue,[1]; [5],decreased
same,IL-1β (% Inhibition),[1],80%
same,MPO (% Inhibition),[1],81%
same,IL-1β in colon tissue,[1]; [3],decreased the C. difficile toxin-induced IL-1β; also recorded: reduced the levels of IL-1β; also recorded: reduced the concentrations of IL-1β
same,MPO in colon tissue,[1]; [3],decreased; also recorded: reduced
same,toxin effect on colon length,[1]; [3],reduced the C. difficile toxin-mediated effects on colon length; also recorded: effective in reducing the C. difficile toxin effects on colon length
same,colon histopathology,"[1]; oral (PO), intrarectal toxin 12.5 μg",prevention of tissue damage; also recorded: improved the colon histopathology
same,plasma concentration,"[2]; IP administration, compared to IR",significantly higher plasma concentrations
same,plasma concentration,[2]; IR administration,low plasma concentrations
same,plasma concentration,"[2]; PO administration, compared to IR",significantly higher plasma concentrations
